This is an account of results in ChEMBL document CHEMBL1201862, “PubChem BioAssay data set” (2004).

Test systems include A549; ACHN; M14; CAKI-1; KM12; Malme-3M; SK-MEL-28; UACC-257; SF-539; IGROV-1; OVCAR-5; COLO 205; NCI-H226; OVCAR-8; LXFL 529; SNB-75; NCI-H522; BT-549; Hs-578T; PC-3.
Holding throughout (assay): growth of human tumour cells (NCI), 48 h

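Interpolation was linear, between the two tested concentrations surrounding the appropriate level; five concentrations were tested over 48 hours in 96-well plates. Here, GI50 denotes the concentration required for 50% inhibition of growth.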 The source made the active and inactive calls. Cut-off read from the data, not from the text of the source: active = GI50 up to about 1.1 µM and inactive = higher. Where only a bound is given, the exact number is not on record here.

For the compound `Cc1ccccc1NC(=O)c1cc(-c2ccc([N+](=O)[O-])cc2)nc(S)n1`, the GI50 in the assay on A549, with ACHN, with M14, in the assay with CAKI-1, in the assay on KM12 and in the assay on Malme-3M was > 100 µM (inactive) in each case. The GI50 with SK-MEL-28, with UACC-257, in the assay with SF-539, with IGROV-1, in the assay with OVCAR-5 and with COLO 205 was > 100 µM (inactive) each time. Moreover, the GI50 with NCI-H226, in the assay with OVCAR-8 and in the assay with LXFL 529 was > 100 µM (inactive) each time.
Turning to `O=C1CCC(=O)C12CCc1ccccc12`, the GI50 in the assay on A549, in the assay with ACHN, in the assay with M14, with CAKI-1, in the assay with Malme-3M and in the assay on SNB-75 was > 100 µM (inactive) each time. Moreover, the GI50 with SK-MEL-28, in the assay on IGROV-1, in the assay on COLO 205, with OVCAR-8 and with LXFL 529 was > 100 µM (inactive) each time.
With `COc1ccc(/C=C2\N=C(c3ccccc3)OC2=O)c(OCc2ccccc2)c1`, the GI50 in the assay on A549 is 41.5 µM (inactive); with ACHN, > 100 µM (inactive); in the assay on M14 it was 49.7 µM (inactive); with CAKI-1, 85.1 µM (inactive); in the assay with KM12, 33 µM (inactive); with Malme-3M, 39.4 µM (inactive). Moreover, the GI50 is > 100 µM (inactive) in the assay with SK-MEL-28; > 10 µM (inactive) with UACC-257; 24 µM (inactive) with SF-539; 18.8 µM (inactive) in the assay with IGROV-1; > 100 µM (inactive) in the assay on OVCAR-5; 24.6 µM (inactive) in the assay on NCI-H522. Also, the GI50 in the assay on COLO 205 was 84.9 µM (inactive); in the assay with NCI-H226 it was 53.2 µM (inactive); in the assay with OVCAR-8 it was 22.9 µM (inactive); with LXFL 529, 38.2 µM (inactive).
Turning to `CC(C)=CCC/C(C)=C/Cc1c(O)c(C)cc2c1[nH]c1cc(O)ccc12`, the GI50 in the assay on A549, in the assay on ACHN, with M14, in the assay on KM12, with Malme-3M and in the assay on SK-MEL-28 was > 25 µM (inactive) throughout. Moreover, the GI50 with SF-539, in the assay on IGROV-1, with OVCAR-5, in the assay with NCI-H522, in the assay on COLO 205 and in the assay on NCI-H226 was > 25 µM (inactive) throughout. The GI50 with OVCAR-8 and in the assay with LXFL 529 was > 25 µM (inactive) in each case.
With `COC(=O)C1=C(C)NC(C)=C(C(=O)OC)C1c1cccc(/[N+]([O-])=C/c2ccccc2)c1`, the GI50 was 16.3 µM (inactive) in the assay with BT-549; > 100 µM (inactive) in the assay with A549; 17.1 µM (inactive) with ACHN; 42.1 µM (inactive) in the assay with Hs-578T; 18.6 µM (inactive) with M14; 18.1 µM (inactive) in the assay with CAKI-1. Moreover, the GI50 in the assay with KM12 was > 100 µM (inactive); in the assay with Malme-3M it was 16.3 µM (inactive); with SNB-75, 41.7 µM (inactive); in the assay on SK-MEL-28, 17.5 µM (inactive); with UACC-257, 19 µM (inactive); with SF-539, > 100 µM (inactive). For the same compound, the GI50 is 74.3 µM (inactive) in the assay with IGROV-1; > 100 µM (inactive) in the assay on OVCAR-5; 16.4 µM (inactive) in the assay on NCI-H522; 16.8 µM (inactive) in the assay on COLO 205; > 100 µM (inactive) with NCI-H226; 17.5 µM (inactive) in the assay with OVCAR-8. The GI50 in the assay with PC-3 was 46.7 µM (inactive).
As for `C[C@]12CC[C@H]3[C@@H](CC[C@]4(O)C[C@@H](O)CC[C@]34/C=N/O)[C@@]1(O)CC[C@@H]2C1=COC(=O)C1`, the GI50 was 0.0675 µM (active) in the assay with BT-549; 0.0336 µM (active) with A549; 0.0404 µM (active) in the assay on ACHN; 0.112 µM (active) with Hs-578T; 0.289 µM (active) in the assay with M14; 0.0363 µM (active) in the assay on CAKI-1. Also, the GI50 is 0.318 µM (active) with KM12; 0.169 µM (active) with Malme-3M; 0.332 µM (active) in the assay with SNB-75; 0.482 µM (active) in the assay with SK-MEL-28; 0.299 µM (active) in the assay with UACC-257; 0.104 µM (active) in the assay with SF-539. In addition, the GI50 with IGROV-1 is 0.136 µM (active); in the assay on OVCAR-5, 0.318 µM (active); in the assay with NCI-H522, 0.0323 µM (active); in the assay on COLO 205, 0.474 µM (active); with NCI-H226, 0.391 µM (active); in the assay with OVCAR-8 it was 0.154 µM (active). In addition, the GI50 with PC-3 was 0.149 µM (active).
On to `O=[N+]([O-])c1cccc2nc3ccccc3c(NCCCNc3c4ccccc4nc4cccc([N+](=O)[O-])c34)c12`, for which the GI50 in the assay with BT-549 was 0.0855 µM (active); in the assay on A549, < 0.0175 µM (active); with ACHN, 0.0121 µM (active); in the assay with Hs-578T, 0.0162 µM (active); with M14, < 0.0177 µM (active); with CAKI-1 it was < 0.0215 µM (active). The GI50 was < 0.013 µM (active) with KM12; 0.0378 µM (active) with Malme-3M; 0.0328 µM (active) in the assay on SNB-75; 0.0505 µM (active) in the assay on SK-MEL-28; 0.0556 µM (active) in the assay with UACC-257; 0.0161 µM (active) in the assay with SF-539. The GI50 in the assay on IGROV-1 is 0.128 µM (active); with OVCAR-5 it was 0.0435 µM (active); in the assay with NCI-H522, 0.0146 µM (active); in the assay on COLO 205, 0.0102 µM (active); with NCI-H226, 0.0697 µM (active); in the assay with OVCAR-8, < 0.0139 µM (active). For the same compound, the GI50 with PC-3 is 0.0343 µM (active).
For `COc1cc2nc(-c3cccs3)nc(Nc3ccccc3C(=O)NN)c2cc1OC`, the GI50 in the assay on BT-549, in the assay with A549, in the assay on ACHN, in the assay with Hs-578T, in the assay with M14 and with CAKI-1 was > 100 µM (inactive) in each case. Also, the GI50 with KM12 was > 100 µM (inactive); with Malme-3M it was > 100 µM (inactive); with SNB-75, > 100 µM (inactive); in the assay with SK-MEL-28, 99.8 µM (inactive); with UACC-257, > 100 µM (inactive); with SF-539 it was > 100 µM (inactive). Also, the GI50 is > 100 µM (inactive) with IGROV-1; > 100 µM (inactive) in the assay on OVCAR-5; > 100 µM (inactive) with NCI-H522; 67.3 µM (inactive) in the assay with COLO 205; > 100 µM (inactive) in the assay with NCI-H226; > 100 µM (inactive) with OVCAR-8. Moreover, in the assay with PC-3, the GI50 is > 100 µM (inactive).
Take `Cc1c[nH]c2c(O)cc3c(c12)[C@H](CCl)CN3C(=O)c1cc2cc(NC(=O)Nc3ccc4[nH]c(C(=O)N5C[C@@H](CCl)c6c5cc(O)c5[nH]cc(C)c65)cc4c3)ccc2[nH]1` [BIZELESIN]: the GI50 in the assay with BT-549 was 24.9 µM (inactive); with A549 it was 11 µM (inactive); in the assay on ACHN, 0.139 µM (active); in the assay on Hs-578T, > 100 µM (inactive); in the assay with M14 it was 0.631 µM (active); with CAKI-1, 9.16 µM (inactive). In addition, the GI50 in the assay with KM12 is 12.1 µM (inactive); in the assay with Malme-3M, 13.7 µM (inactive); in the assay with SNB-75, 1.09 µM (active); in the assay on SK-MEL-28, 14.6 µM (inactive); in the assay with UACC-257 it was 14.6 µM (inactive); in the assay with SF-539, 1.24 µM (inactive). The GI50 with IGROV-1 is 19.4 µM (inactive); in the assay on OVCAR-5, 0.00136 µM (active); in the assay on NCI-H522, < 0.001 µM (active); in the assay on COLO 205 it was 8.91 µM (inactive); in the assay with NCI-H226, 0.183 µM (active); in the assay with OVCAR-8, 2.62 µM (inactive). The GI50 in the assay with PC-3 is 33.9 µM (inactive).
Turning to `O=C(Nc1ccc(Cl)cc1)c1cc(S(=O)(=O)Nc2nc3cccnc3[nH]2)c(SSc2cc(Cl)c(C(=O)Nc3ccc(Cl)cc3)cc2S(=O)(=O)Nc2nc3cccnc3[nH]2)cc1Cl`, the GI50 in the assay on BT-549, in the assay on A549, with ACHN, in the assay with Hs-578T, in the assay with M14 and in the assay with CAKI-1 was > 100 µM (inactive) throughout. For the same compound, the GI50 with KM12, in the assay with Malme-3M, in the assay with SNB-75, in the assay with SK-MEL-28, in the assay on UACC-257 and in the assay with SF-539 was > 100 µM (inactive) throughout. Further, the GI50 in the assay on IGROV-1, in the assay on OVCAR-5, in the assay on NCI-H522, in the assay on COLO 205, in the assay on NCI-H226 and in the assay on OVCAR-8 was > 100 µM (inactive) in each case. The GI50 in the assay with PC-3 was > 100 µM (inactive).
As for `COc1ccc(/N=N\c2c(N)nn3c(SC)c(C#N)c(N)nc23)cc1`, the GI50 in the assay with BT-549 was 14.9 µM (inactive); in the assay with A549 it was 18 µM (inactive); in the assay with ACHN it was 14.6 µM (inactive); in the assay on Hs-578T, 2.52 µM (inactive); in the assay on M14 it was 12.6 µM (inactive); in the assay on CAKI-1, 10.9 µM (inactive). The GI50 in the assay with KM12 is 15.1 µM (inactive); with Malme-3M it was 16.2 µM (inactive); in the assay with SNB-75, 17.8 µM (inactive); in the assay on SK-MEL-28 it was 6.5 µM (inactive); with UACC-257, 5.11 µM (inactive); with SF-539, 19 µM (inactive). For the same compound, the GI50 with IGROV-1 was 1.82 µM (inactive); in the assay on OVCAR-5, 17.6 µM (inactive); in the assay on NCI-H522 it was 16.5 µM (inactive); in the assay on COLO 205 it was 12.9 µM (inactive); in the assay on NCI-H226 it was 21.4 µM (inactive); in the assay on OVCAR-8, 5.04 µM (inactive). The GI50 in the assay on PC-3 is 6.87 µM (inactive).
